Read-outs that look alike come from different tables or passages of the source.
Assays:
[1] = biological target: T1, SNARE complex (Syntaxin 1A-CFP, VAMP2-YFP) in PCl2 cells (UniProt P60881+P63027+Q16623); assay: In vivo (cell) SNARE function screen: FRET C and NPY release in PCl2 cells; format: cell-based
T1 construct: expressed in transfected cells

SNARE complexes [2] = biological target: T2, SNARE complexes (Homo sapiens, UniProt P60880+P63027+Q16623); assay: Immunoblotting of SDS-resistant SNARE complexes, in vivo; format: cell-based; conditions: SDS-PAGE
T2 sequence (Q16623 whole entry): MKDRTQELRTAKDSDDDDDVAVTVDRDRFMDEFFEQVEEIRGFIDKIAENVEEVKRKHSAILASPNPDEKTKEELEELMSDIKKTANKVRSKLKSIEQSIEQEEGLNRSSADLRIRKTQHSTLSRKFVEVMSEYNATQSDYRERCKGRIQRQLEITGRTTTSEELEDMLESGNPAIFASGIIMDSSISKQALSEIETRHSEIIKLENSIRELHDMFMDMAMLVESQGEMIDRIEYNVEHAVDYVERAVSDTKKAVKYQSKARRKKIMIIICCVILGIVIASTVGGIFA
T2 sequence (P60880 whole entry): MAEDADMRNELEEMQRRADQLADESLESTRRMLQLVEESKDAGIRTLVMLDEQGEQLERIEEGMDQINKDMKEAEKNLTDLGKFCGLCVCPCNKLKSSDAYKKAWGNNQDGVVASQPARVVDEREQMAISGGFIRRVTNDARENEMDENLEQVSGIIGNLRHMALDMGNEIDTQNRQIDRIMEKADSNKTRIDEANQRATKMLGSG
T2 sequence (P63027 whole entry): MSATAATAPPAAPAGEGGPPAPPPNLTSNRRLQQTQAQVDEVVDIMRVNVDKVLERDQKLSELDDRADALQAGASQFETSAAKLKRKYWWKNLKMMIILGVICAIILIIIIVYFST
From the text: (§1) The above characteristics were clearly confirmed by immunoblotting of SNARE complexes (see FIG. 2B). SNARE complexes are known to have SDS-resistance, and based on these characteristics, immunoblotting using SDS-PAGE is generally used to identify the formation of SNARE complexes.

PCl2 cells [3] = assay: [3H] norepinephrine release from PCl2 cells (liquid scintillation); format: cell-based; conditions: for inhibition of release of [3H] norepinephrine: Krebs' buffer with high K+
Procedure: The first method is as follows. […] After thorough washing, the PCl2 cells were washed four times with the culture medium for 15 minutes each. […] The medium was replaced with Krebs' buffer with high K^+, followed by culturing for 10 minutes, to collect samples. The collected samples were subjected to radiation measurement using a liquid scintillation counter.

[4] = Light stability under UV, color observed with the naked eye over time; format: physicochemical; conditions: UV lamp
Procedure: It was examined whether myricetin, and laricitrin and syringetin, which are naturally occurring myricetin derivatives, were denatured when exposed to UV. First, each myricetin derivative (MP, 1 mg/1.34 g), prepared by reacting myricetin (M, 1 mg/1.34 g) and palmitic acid, was uniformly mixed in a commercially available sunblock cream (Kolmar Korea, NoTS UV protection sunscreen cream, 1.34 g), and the mixture was applied on a cover glass, followed by irradiation for 24 hours with UV having an intensity of 253.7 nM using a UV lamp.

PCl2 cells [5] = assay: Intracellular bioconversion into myricetin in PCl2 cells (HPLC); format: in vitro ADME; conditions: within 1 hour
Procedure: A rate of bioconversion of the myricetin derivative prepared by acylation with acetic acid into myricetin in vivo was determined.
After the cells were completely washed, the cells were treated with trypsin to collect trypsin-attached cells, and trypsin was removed therefrom to obtain only pure cells. The cells were suspended in 100 μl of tetrahydrofuran, followed by disruption through sonication, and then only tetrahydrofuran in which materials in the cells were lysed was collected. Subsequently, only myricetin in the recovered purified liquid was analyzed by high-performance liquid chromatography (HPLC) to examine whether the myricetin derivative prepared by acylation using acetic acid was converted into myricetin, and the results thereof are illustrated in FIG. 15.

[6] = biological target: SNARE-mediated membrane fusion (Homo sapiens, UniProt P60880+P63027+Q16623); assay: In vitro membrane fusion by FRET on dye-labelled lipid bilayer membrane; format: biochemical; conditions: artificial lipid bilayer membrane
SNARE-mediated membrane fusion, sequence (Q16623 whole entry, the tested form may be a part): as the sequence (Q16623 whole entry) above
SNARE-mediated membrane fusion, sequence (P60880 whole entry, the tested form may be a part): as the sequence (P60880 whole entry) above
SNARE-mediated membrane fusion, sequence (P63027 whole entry, the tested form may be a part): as the sequence (P63027 whole entry) above

SNARE complexes [7] = biological target: T2, SNARE complexes; assay: Immunoblotting of SDS-resistant SNARE complexes, in vitro; format: biochemical; conditions: SDS-PAGE
From the text: as §1

[8] = Light stability under UV, DMSO solution mixed with zinc oxide; format: physicochemical; conditions: 1 mg/ml DMSO with zinc oxide, UV 2 hours
Procedure: First, 1 mg of each of myricetin and the myricetin derivatives were dissolved in 1 ml of dimethyl sulfoxide (DMSO), followed by mixing with zinc oxide having high reactivity with a hydroxyl group of myricetin. The resulting mixed solution was applied, as 100 μl drops, on 3M paper, and irradiated for 2 hours with UV light having an intensity of 253.7 nM using a UV lamp. As negative controls, untreated DMSO and a mixed solution of untreated DMSO and zinc oxide were used.

[9] = Solubility in canola oil and mineral oil; format: physicochemical
Procedure: In the present experimental example, in view of the fact that in Example 4, myricetin underwent various changes in properties during synthesis of a myricetin derivative, in which all hydroxyl groups of myricetin were acylated by palmitic acid, the solubilities of the myricetin derivative in an organic solvent, or in a commercially available liposoluble cosmetic, food product, or the like were measured.
In particular, the myricetin derivative was dissolved in canola oil and mineral oil at a ratio of 1 mg/l ml. The results thereof are illustrated in FIG. 13.

[10] = Examination of color of myricetin derivatives by degree of acylation; format: physicochemical; conditions: degree of acylation by palmitic acid
From the text: In the present experimental example, whether a disadvantage of myricetin that a too dark intrinsic color thereof causes the skin to be stained can be addressed through making changes in properties using myricetin derivatives according to the present invention was examined.
As a result, it was observed that as a degree to which a hydroxyl group of myricetin was acylated by palmitic acid, i.e., the degree of acylation, increased, colors of the myricetin derivatives were changed, unlike conventional myricetin. In particular, it was observed that the myricetin derivative obtained in Example 3, in which one hydroxyl group of myricetin was acylated by palmitic acid, had yellow color, which is an intrinsic color of myricetin (see FIG. 12A), whereas the myricetin derivative obtained in Example 4, in which all hydroxyl groups of myricetin were acylated by palmitic acid, had white color (see FIG. 12B).

T1 sequence (Q16623 whole entry): as the sequence (Q16623 whole entry) above
T1 sequence (P63027 whole entry): as the sequence (P63027 whole entry) above
T1 sequence (P60881 whole entry): as the sequence (P60880 whole entry) above

COc1cc(O)c2c(=O)c(OC)c(-c3cc(OC)c(OC)c(OC)c3)oc2c1 [combretol]
in vivo functions (FRET C, NPY release) [1]: 40-45 % of the control
formation of SNARE complexes in vivo (SNARE complexes [2]): decreasing tendency only in vivo

COc1cc(-c2oc3cc(O)cc(O)c3c(=O)c2O)cc(O)c1O [laricitrin]
in vivo functions (FRET C, NPY release) [1]: 40-45 % of the control
formation of SNARE complexes in vivo (SNARE complexes [2]): decreasing tendency only in vivo
activity of inhibiting [3H] norepinephrine release compared to conventional myricetin (PCl2 cells [3]; 20 μM): at least two-fold improved activity
inhibition of release of [3H] norepinephrine (PCl2 cells [3]): highest reactivity
color change on UV irradiation compared to myricetin [4]: did not show clear color changes
time after UV irradiation at which color turned brown [4]: 60 min

CC(=O)Oc1cc(OC(C)=O)c2c(=O)c(OC(C)=O)c(-c3cc(OC(C)=O)c(OC(C)=O)c(OC(C)=O)c3)oc2c1 [MA]
inhibition of release of [3H] norepinephrine (PCl2 cells [3]): comparable or slightly better activity
fraction bioconverted into myricetin (PCl2 cells [5]): 3%

O=c1c(O)c(-c2cc(O)c(O)c(O)c2)oc2cc(O)cc(O)c12 [myricetin]
in vivo functions (FRET C, NPY release) ([1]; PCl2 cells): ≤ 40 % of the control
in vitro functions (membrane fusion) [6]: ≤ 40 % of the control
formation of SNARE complexes in vivo (SNARE complexes [2]): decreasing tendency
formation of SNARE complexes in vitro (SNARE complexes [7]): decreasing tendency
inhibition of release of [3H] norepinephrine (PCl2 cells [3]): concentration-dependent manner
color change on UV exposure [8]: color changes over time
solubility in canola oil ([9]; 1 mg/1 ml): insoluble
solubility in mineral oil ([9]; 1 mg/1 ml): insoluble
time after UV irradiation at which color turned brown [4]: 5 min
time after UV irradiation at which color turned dark brown (complete oxidation) [4]: 30 min

CCCCCCCCCCCCCCCC(=O)Oc1cc(OC(=O)CCCCCCCCCCCCCCC)c2c(=O)c(OC(=O)CCCCCCCCCCCCCCC)c(-c3cc(OC(=O)CCCCCCCCCCCCCCC)c(OC(=O)CCCCCCCCCCCCCCC)c(OC(=O)CCCCCCCCCCCCCCC)c3)oc2c1 [MP]
color of the substance [10]: white color
solubility in canola oil [9]: liposoluble
solubility in mineral oil [9]: liposoluble

COc1cc(-c2oc3cc(O)cc(O)c3c(=O)c2O)cc(OC)c1O [syringetin]
formation of SNARE complexes in vivo (SNARE complexes [2]): decreasing tendency only in vivo
color change on UV irradiation compared to myricetin [4]: did not show clear color changes
time after UV irradiation at which color turned brown [4]: 240 min

Source: US10682333B2, “Composition for inhibiting formation of SNARE complex, containing myricetin derivatives” (RESEARCH & BUSINESS FOUNDATION SUNGKYUNKWAN UNIVERSITY, priority 2015, dated 2020)
